Results: patent US20140120087A1, “TRIAZOLOPYRIDINES” (BAYER INTELLECTUAL PROPERTY GMBH, priority 2011, published 2014)

What was measured:
[1] = Hydrolytic stability assay at pH 2; format: physicochemical; settings: buffer pH 2, 37° C.
Method: The hydrolytic stability assay investigates the stability of a compound in an aqueous buffer system. Standard solution stability assay is run in 0.05 M Phosphate buffer at pH 7.4 (pH of blood plasma) at 37° C. As compounds in the GI tract are exposed to a wide variety of pHs any relevant pH (as pH 2 to simulate the acidic condition of the GI tract in the following experiment) can be chosen. Compounds are incubated in relevant solution at 37° C. and analyzed by HPLC immediately after incubation and after 1, 2 and 24 hrs. Degradation rate (decay in %) is calculated by relating peak areas after 1, 2 and 24 hrs to the time zero injection.
Compound is available as 10 mM in DMSO (solution 1). 2.5 μL of solution 1 is dissolved in 1 mL acetonitrile leading to solution 2. Poorly soluble compounds may demand another dilution step of solution 2 (1:5 and 1:10 respectively) in Acetonitrile). Solution 2 is incubated at 37° C. in a tempered HPLC autosampler. 1 mL buffer pH 2 is transferred into an HPLC vial. 100 μL of solution 2 is added to the buffer pH 2 solution and mixed thoroughly. Immediately after mixing the combined solution is injected into the HPLC to give the time zero injection. Injections are repeated after 1, 2 and 24 hrs.
The degradation rate (decay in %) is calculated using HPLC software Millennium and Excel respectively.

Mps-1 kinase [2] = target: T1, Mps-1 kinase (Homo sapiens, UniProt P33981); experiment: Mps-1 kinase assay with 2 mM ATP (TR-FRET)
T1 sequence (P33981 1-857): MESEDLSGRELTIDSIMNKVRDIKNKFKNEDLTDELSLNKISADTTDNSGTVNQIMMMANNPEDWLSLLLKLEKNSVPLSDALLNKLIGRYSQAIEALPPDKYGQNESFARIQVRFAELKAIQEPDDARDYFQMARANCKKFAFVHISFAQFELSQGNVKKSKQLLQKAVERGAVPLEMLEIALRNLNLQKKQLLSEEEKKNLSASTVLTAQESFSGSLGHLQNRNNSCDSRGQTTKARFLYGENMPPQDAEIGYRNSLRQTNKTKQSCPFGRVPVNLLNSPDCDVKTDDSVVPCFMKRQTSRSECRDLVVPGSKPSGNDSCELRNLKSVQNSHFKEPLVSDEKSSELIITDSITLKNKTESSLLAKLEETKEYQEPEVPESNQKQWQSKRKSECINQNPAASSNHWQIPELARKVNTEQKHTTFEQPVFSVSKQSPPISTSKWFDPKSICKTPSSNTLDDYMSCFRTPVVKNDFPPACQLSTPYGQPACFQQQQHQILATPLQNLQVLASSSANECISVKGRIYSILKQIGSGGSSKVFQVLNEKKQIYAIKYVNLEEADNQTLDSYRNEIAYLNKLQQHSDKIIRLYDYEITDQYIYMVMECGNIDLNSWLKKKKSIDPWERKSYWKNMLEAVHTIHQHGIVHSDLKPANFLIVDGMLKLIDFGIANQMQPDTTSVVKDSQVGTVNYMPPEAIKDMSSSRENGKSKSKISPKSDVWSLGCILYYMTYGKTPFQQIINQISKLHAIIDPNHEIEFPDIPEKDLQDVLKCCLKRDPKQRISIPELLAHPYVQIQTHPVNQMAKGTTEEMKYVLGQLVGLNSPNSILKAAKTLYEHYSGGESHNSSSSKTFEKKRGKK

Mps-1 kinase [3] = target: T1, Mps-1 kinase; experiment: Mps-1 kinase assay with 10 μM ATP (TR-FRET)
[4] = comparison compounds specified in WO2011/063908

Row | Hydrolysis at pH 2; Decay in % after 24 h ([1]; compounds of the invention) [%] | IC50 (Mps-1 kinase [2]) [nM] | IC50 (Mps-1 kinase [3]) [nM] | Hydrolysis at pH 2; Decay in % after 24 h [1, 4] | Compound
1 | <10 | ≤ 1 | ≤ 1 |  | CCN(CC)C(=O)c1ccc(Nc2nc3ccc(-c4ccc(NC(=O)Cc5ccc(F)cc5)cc4)cn3n2)c(OCC(F)(F)F)c1 [Example 01.22, N,N-diethyl-4-{[6-(4-{[(4-fluorophenyl)acetyl]amino}phenyl)[1,2,4]triazolo-[1,5-α]pyridin-2-yl]amino}-3-(2,2,2-trifluoroethoxy)benzamide]
2 | <10 | ≤ 1 | ≤ 1 |  | CCOc1cc(C(=O)NC(C)(C)CO)ccc1Nc1nc2ccc(-c3ccc(NC(=O)Cc4ccc(F)cc4)cc3)cn2n1 [Example 01.9, 3-ethoxy-4-{[6-(4-{[(4-fluorophenyl)acetyl]amino}phenyl)[1,2,4]triazolo-[1,5-α]pyridin-2-yl]amino}-N-(1-hydroxy-2-methylpropan-2-yl)benzamide]
3 | <10 | ≤ 1 | ≤ 1 |  | CNC(=O)c1ccc(Nc2nc3ccc(-c4ccc(C(=O)NCc5ccc(F)cc5)cc4)cn3n2)c(OC)c1 [Example 02.13, 4-[(6-{4-[(4-fluorobenzyl)carbamoyl]phenyl}[1,2,4]triazolo[1,5-α]pyridin-2-yl)amino]-3-methoxy-N-methylbenzamide]
4 |  |  | 2.1 | ≧70% | Cc1ccc(C#N)c(Nc2nc3ccc(-c4ccc(NC(=O)Cc5ccccc5)cc4)cn3n2)c1 [Example 10, reference compound]
5 |  |  | ≤ 1 | ≧70% | COc1cccc(CC(=O)Nc2ccc(-c3ccc4nc(Nc5ccccc5C#N)nn4c3)cc2)c1 [Example 5, reference compound]
6 | <10 | ≤ 1 | ≤ 1 |  | O=C(Cc1ccc(F)cc1)Nc1ccc(-c2ccc3nc(Nc4ccc(C(=O)NCCO)cc4OCC(F)(F)F)nn3c2)cc1 [Example 01.11, 4-{[6-(4-{[(4-fluorophenyl)acetyl]amino}phenyl)[1,2,4]triazolo[1,5-α]-pyridin-2-yl]amino}-N-(2-hydroxyethyl)-3-(2,2,2-trifluoroethoxy)benzamide]
7 | <10 | 1.8 | ≤ 1 |  | COc1cc(C(=O)NCC(C)(C)O)ccc1Nc1nc2ccc(-c3ccc(C(=O)NCc4ccc(F)cc4)cc3)cn2n1 [Example 02.5, 4-[(6-{4-[(4-fluorobenzyl)carbamoyl]phenyl}[1,2,4]triazolo[1,5-α]pyridin-2-yl)amino]-N-(2-hydroxy-2-methylpropyl)-3-methoxybenzamide]
8 | <10 | 14 | ≤ 1 |  | CCNC(=O)c1ccc(Nc2nc3ccc(-c4ccc(C(=O)NCc5cccc(F)c5)cc4)cn3n2)c(OC)c1 [Example 07.1, N-ethyl-4-[(6-{4-[(3-fluorobenzyl)carbamoyl]phenyl}[1,2,4]triazolo[1,5-α]-pyridin-2-yl)amino]-3-methoxybenzamide]
9 |  |  | ≤ 1 | ≧70% | N#Cc1ccccc1Nc1nc2ccc(-c3ccc(NC(=O)Cc4ccccc4F)cc3)cn2n1 [Example 3, reference compound]
10 | <10 | 19 | ≤ 1 |  | CCNC(=O)c1ccc(Nc2nc3ccc(-c4ccc(C(=O)NCC5CC5)cc4)cn3n2)c(OCC(F)(F)F)c1 [Example 06.5, 4-[(6-{4-[(cyclopropylmethyl)carbamoyl]phenyl}[1,2,4]triazolo[1,5-α]-pyridin-2-yl)amino]-N-ethyl-3-(2,2,2-trifluoroethoxy)benzamide]
11 | <10 | ≤ 1 | ≤ 1 |  | O=C(NCc1ccc(F)cc1)c1ccc(-c2ccc3nc(Nc4ccc(C(=O)NCC(F)(F)F)cc4OCC(F)(F)F)nn3c2)cc1 [Example 02.23, 4-[(6-{4-[(4-fluorobenzyl)carbamoyl]phenyl}[1,2,4]triazolo[1,5-α]pyridin-2-yl)amino]-3-(2,2,2-trifluoroethoxy)-N-(2,2,2-trifluoroethyl)benzamide]
12 | <10 | 3.8 | ≤ 1 |  | COc1ccc(Nc2nc3ccc(-c4ccc(C(=O)NCc5ccc(F)cc5)cc4)cn3n2)c(OC)c1 [Example 02.16, 4-{2-[(2,4-dimethoxyphenyl)amino][1,2,4]triazolo[1,5-α]pyridin-6-yl}-N-(4-fluorobenzyl)benzamide]
13 | <10 | 26 | 1.4 |  | CCOc1cc(C(=O)N(CC)CCOC)ccc1Nc1nc2ccc(-c3ccc(C(=O)NCC4CC4)cc3)cn2n1 [Example 06.2, 4-[(6-{4-[(cyclopropylmethyl)carbamoyl]phenyl}[1,2,4]triazolo[1,5-α]-pyridin-2-yl)amino]-3-ethoxy-N-ethyl-N-(2-methoxyethyl)benzamide]
14 | <10 |  | ≤ 1 |  | COc1cc(C(=O)NC(C)(C)CO)ccc1Nc1nc2ccc(-c3ccc(C(=O)NCc4ccc(F)cc4)c(Cl)c3)cn2n1 [Example 05.1, 2-chloro-N-(4-fluorobenzyl)-4-[2-({4-[(1-hydroxy-2-methylpropan-2-yl)-carbamoyl]-2-methoxyphenyl}amino)[1,2,4]triazolo[1,5-α]pyridin-6-yl]-benzamide]
15 | <10 | 4.1 | ≤ 1 |  | COc1cc(C#N)ccc1Nc1nc2ccc(-c3ccc(NC(=O)Cc4ccc(F)cc4)cc3)cn2n1 [Example 01.2, N-(4-{2-[(4-cyano-2-methoxyphenyl)amino][1,2,4]triazolo[1,5-α]pyridin-6-yl}phenyl)-2-(4-fluorophenyl)acetamide]
16 | <10 |  | ≤ 1 |  | CCNC(=O)c1ccc(Nc2nc3ccc(-c4ccc(C(=O)NCC5CC5)cc4)cn3n2)c(OCC)c1 [Example 06.1, 4-[(6-{4-[(cyclopropylmethyl)carbamoyl]phenyl}[1,2,4]triazolo[1,5-α]-pyridin-2-yl)amino]-3-ethoxy-N-ethylbenzamide]
17 |  |  | 1.1 | ≧70% | N#Cc1ccccc1Nc1nc2ccc(-c3ccc(NC(=O)Cc4cccc(F)c4)cc3)cn2n1 [Example 7, reference compound]
18 |  |  | 1.4 | ≧70% | N#Cc1ccccc1Nc1nc2ccc(-c3ccc(NC(=O)Cc4cccc(C(F)(F)F)c4)cc3)cn2n1 [Example 8, reference compound]
19 |  |  | ≤ 1 | ≧20% | N#Cc1c(F)cccc1Nc1nc2ccc(-c3ccc(NC(=O)Cc4ccccc4)cc3)cn2n1 [Example 2, reference compound]
20 |  |  | ≤ 1 | ≧70% | N#Cc1ccccc1Nc1nc2ccc(-c3ccc(NC(=O)Cc4ccc(F)c(F)c4)cc3)cn2n1 [Example 4, reference compound]
21 |  |  |  | ≧90% | N#Cc1ccccc1Nc1nc2ccc(-c3ccc(NC(=O)Cc4ccc(F)cc4)cc3)cn2n1 [Example 1, reference compound]
22 |  |  |  | ≧90% | N#Cc1ccccc1Nc1nc2ccc(-c3ccc(NC(=O)Cc4ccccc4)cc3)cn2n1 [Example 6, reference compound]
23 | <10 |  |  |  | COc1cc(S(C)(=O)=O)ccc1Nc1nc2ccc(-c3ccc(NC(=O)Cc4ccc(F)cc4)cc3)cn2n1 [Example 01.15, 2-(4-fluorophenyl)-N-[4-(2-{[2-methoxy-4-(methylsulfonyl)phenyl]amino}-[1,2,4]triazolo[1,5-α]pyridin-6-yl)phenyl]acetamide]
